One data set deals with T1, PI3Kγ (Mus musculus, UniProt Q9JHG7).
T1 construct: host or cells: Raw264.7 cells
Nature of the data set: Akt phosphorylation in Raw264.7 cells stimulated by c5α (AlphaLISA). Particulars: phosphorylation of Akt, read-out: IC50 PI3Kγ Cell-based. The procedure: (§1) In addition, taking Sample 6 as an example, the inhibitory effects thereof on PI3Kα, PI3Kβ, PI3Kγ and PI3Kδ in corresponding cells were determined. The activity of PI3Kα was detected by the phosphorylation level of Akt in C2Cl2 cells stimulated by IGF-1, the activity of PI3Kβ was detected by the phosphorylation level of Akt in PC-3 cells stimulated by LPA, the activity of PI3Kγ was detected by the phosphorylation level of Akt in Raw264.7 cells stimulated by c5α, and the activity of PI3Kδ was detected by the phosphorylation level of Akt in Raji cells stimulated by IgM. The phosphorylation level of Akt in cells was determined by means of AlphaLISA technique from PerkinElemer.
(§2) The C2C12 cells, PC-3 cells, Raw264.7 cells and Raji cells were all purchased from ATCC.

The target in another data set is PI3Kβ (p110β) (Homo sapiens, UniProt P42338). Put plainly: ADP-Glo kinase inhibition, PI3Kβ. The conditions noted are these: read-out: IC50 PI3Kβ Biochemical. On the procedure: (§3) In Example 7, the inhibitory effects of Sample 6 prepared in Example 6 above on kinases PI3Kα, PI3Kβ, PI3Kγ and PI3Kδ were tested.
Sequence of PI3Kβ (p110β) (P42338 whole entry): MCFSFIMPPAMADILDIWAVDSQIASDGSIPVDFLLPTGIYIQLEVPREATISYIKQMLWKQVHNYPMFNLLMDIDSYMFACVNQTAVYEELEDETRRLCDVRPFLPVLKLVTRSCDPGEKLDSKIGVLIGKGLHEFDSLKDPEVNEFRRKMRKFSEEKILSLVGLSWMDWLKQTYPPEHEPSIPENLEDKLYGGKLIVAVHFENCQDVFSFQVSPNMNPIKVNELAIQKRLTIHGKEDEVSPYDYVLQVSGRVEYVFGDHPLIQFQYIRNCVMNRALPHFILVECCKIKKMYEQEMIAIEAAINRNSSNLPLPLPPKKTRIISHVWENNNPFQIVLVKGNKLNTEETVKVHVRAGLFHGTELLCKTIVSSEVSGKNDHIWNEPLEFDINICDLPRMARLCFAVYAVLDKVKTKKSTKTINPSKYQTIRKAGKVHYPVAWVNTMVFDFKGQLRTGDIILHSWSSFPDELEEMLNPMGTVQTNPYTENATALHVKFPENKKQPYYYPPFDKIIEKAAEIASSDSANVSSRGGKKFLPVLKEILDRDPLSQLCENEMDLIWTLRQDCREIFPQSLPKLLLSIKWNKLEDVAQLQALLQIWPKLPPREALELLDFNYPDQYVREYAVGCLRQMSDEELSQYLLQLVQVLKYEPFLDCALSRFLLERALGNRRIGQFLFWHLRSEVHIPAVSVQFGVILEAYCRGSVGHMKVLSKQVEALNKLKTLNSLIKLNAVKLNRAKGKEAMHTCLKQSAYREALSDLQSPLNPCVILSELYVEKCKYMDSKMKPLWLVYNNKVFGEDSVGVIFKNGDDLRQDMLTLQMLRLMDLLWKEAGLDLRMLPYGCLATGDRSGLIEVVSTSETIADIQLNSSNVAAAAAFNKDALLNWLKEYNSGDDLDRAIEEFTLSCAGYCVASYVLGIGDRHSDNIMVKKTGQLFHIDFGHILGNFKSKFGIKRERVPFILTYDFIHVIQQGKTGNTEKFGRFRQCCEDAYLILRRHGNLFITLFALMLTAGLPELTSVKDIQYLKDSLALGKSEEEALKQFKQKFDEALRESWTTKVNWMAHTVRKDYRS
(§4) The kinases used in the experiment were respectively purchased from: • PI3Kα (p110α/p85α), purchased from Invitrogen, under Cat. No. PV4788; • PI3Kβ (p110β), purchased from eurofins, under Cat. No. 14-603M; • PI3Kδ (p110δ/p85a), purchased from Invitrogen, under Cat. No. PV6452; and • PI3Kγ (p110γ), purchased from Invitrogen, under Cat. No. PR8641C. • Firstly, a 1× kinase buffer solution was prepared, which comprised: • 50 mM HEPES, pH 7.5 • 3 mM MgCl2 • 1 mM EGTA • 100 mM NaCl • 0.03% CHAPS • 2 mM DTT
(§5) On kinases PI3Kα, PI3Kβ and PI3Kγ, the final detection concentration of the compound was 10 μM. 100× concentration was prepared, i.e., 1000 μM. 90 μL of 100% DMSO was added to the second well in row A on a 96-well plate, 10 μL of a 10 mM compound solution was then added, and 3-fold serial dilution was made to obtain a total of 10 concentrations.
(§6) 50 μL of 100% DMSO was transferred to two empty wells as Max well and Min well, respectively.
(§7) 50 nL of the compound was transferred into a 384-well plate using ECHO550.
(§8) Preparation of 2× kinase solution: the kinase was added to a 1× kinase buffer to prepare a 2× enzyme solution. […]
(§9) Finally, the chemiluminescence values were read from Envision 2104 Multi-label Reader and subjected to curve fitting, and IC50 was calculated.
In general terms: In ADP-Glo the light output rises with the ADP produced.

Data set [1] is described as follows: Solubility in organic solvents. In kind it is physicochemical. Particulars: organic solvent or mixture. An excerpt:
Therefore, these two solvents were taken, for example, as good solvents and subjected to anti-solvent precipitation experiments.

In a further data set the test system is DoHH-2. Nature of the data set: Proliferation of lymphoma cell line in vitro, DoHH-2. In kind it is cell-based. The conditions noted are these: Homo sapiens, read-out: absolute IC50 (AbsIC50), proliferation.
Another data set relates to SU-DHL-6. Put plainly: Proliferation of lymphoma cell line in vitro, SU-DHL-6. The conditions noted are these: Homo sapiens, read-out: absolute IC50 (AbsIC50), proliferation. In kind it is cell-based.
Data set [2] in a line: Solid stability, 40° C./75% RH and 60° C., one week (HPLC purity, XRPD). In kind it is physicochemical. On the procedure: Appropriate amounts of Compound A and p-toluenesulfonate of Compound A (Sample 5, crystal form I) were respectively placed in 40° C./75% RH and 60° C. environments for one week to determine solid stability. At days 0 and 7, HPLC purity analysis and solid XRPD determination were carried out, and some of the results were as shown in Table 7.

Another data set concerns the target T2, PI3Kα (p110α/p85α) (Homo sapiens, UniProt P42336).
T2 construct: purchased Invitrogen PV4788
Nature of the data set: ADP-Glo kinase inhibition, PI3Kα. The conditions noted are these: read-out: IC50 PI3Kα Biochemical. On the procedure:
as §3, §4, §5, §6, §7, §8, §9

A further data set addresses T3, PI3Kδ (Homo sapiens, UniProt O00329).
T3 construct: host or cells: Raji cells
Nature of the data set: Akt phosphorylation in Raji cells stimulated by IgM (AlphaLISA). Particulars: phosphorylation of Akt, read-out: IC50 PI3Kδ Cell-based. On the procedure: as §1, §2

The next data set has as its target T4, PI3Kβ (Homo sapiens, UniProt P42338).
T4 construct: host or cells: PC-3 cells
Nature of the data set: Akt phosphorylation in PC-3 cells stimulated by LPA (AlphaLISA). Particulars: phosphorylation of Akt, read-out: IC50 PI3Kβ Cell-based. The procedure: as §1, §2
For orientation: In Alpha technology, singlet oxygen from a donor bead excites a nearby acceptor bead.

Where “and” joins values, the source holds several entries; their conditions need not be identical. Equal entries are not always repeated. Where two headings read alike, the source gives them in different places. A value given as a limit tells only on which side of the number the result lay.

T3 sequence (O00329 whole entry): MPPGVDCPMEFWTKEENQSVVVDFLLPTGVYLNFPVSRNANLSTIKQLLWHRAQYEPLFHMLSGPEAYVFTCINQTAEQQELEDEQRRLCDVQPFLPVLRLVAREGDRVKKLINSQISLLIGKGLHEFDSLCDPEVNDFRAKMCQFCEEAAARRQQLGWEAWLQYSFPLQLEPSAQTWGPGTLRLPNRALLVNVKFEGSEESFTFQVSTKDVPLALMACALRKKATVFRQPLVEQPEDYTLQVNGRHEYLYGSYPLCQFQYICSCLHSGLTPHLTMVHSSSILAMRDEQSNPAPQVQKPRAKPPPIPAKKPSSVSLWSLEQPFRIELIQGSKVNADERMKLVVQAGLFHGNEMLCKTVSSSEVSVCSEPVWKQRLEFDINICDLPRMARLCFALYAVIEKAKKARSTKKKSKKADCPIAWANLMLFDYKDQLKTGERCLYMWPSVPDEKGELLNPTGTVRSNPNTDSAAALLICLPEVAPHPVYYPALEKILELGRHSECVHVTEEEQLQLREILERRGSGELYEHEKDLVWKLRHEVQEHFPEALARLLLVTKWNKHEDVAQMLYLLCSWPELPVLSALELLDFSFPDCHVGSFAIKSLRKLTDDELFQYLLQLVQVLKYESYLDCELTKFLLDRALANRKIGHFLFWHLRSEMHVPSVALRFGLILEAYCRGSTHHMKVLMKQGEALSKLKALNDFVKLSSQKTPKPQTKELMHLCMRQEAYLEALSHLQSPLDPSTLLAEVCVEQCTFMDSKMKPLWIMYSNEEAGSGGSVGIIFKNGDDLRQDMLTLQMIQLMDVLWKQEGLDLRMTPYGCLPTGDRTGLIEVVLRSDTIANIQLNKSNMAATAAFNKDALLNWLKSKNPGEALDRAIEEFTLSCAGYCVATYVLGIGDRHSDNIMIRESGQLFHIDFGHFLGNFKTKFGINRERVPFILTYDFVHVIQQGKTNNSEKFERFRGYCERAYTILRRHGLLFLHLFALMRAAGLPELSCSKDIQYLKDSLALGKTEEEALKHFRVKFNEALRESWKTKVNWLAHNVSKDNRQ
T3 sequence (P27986 whole entry partner): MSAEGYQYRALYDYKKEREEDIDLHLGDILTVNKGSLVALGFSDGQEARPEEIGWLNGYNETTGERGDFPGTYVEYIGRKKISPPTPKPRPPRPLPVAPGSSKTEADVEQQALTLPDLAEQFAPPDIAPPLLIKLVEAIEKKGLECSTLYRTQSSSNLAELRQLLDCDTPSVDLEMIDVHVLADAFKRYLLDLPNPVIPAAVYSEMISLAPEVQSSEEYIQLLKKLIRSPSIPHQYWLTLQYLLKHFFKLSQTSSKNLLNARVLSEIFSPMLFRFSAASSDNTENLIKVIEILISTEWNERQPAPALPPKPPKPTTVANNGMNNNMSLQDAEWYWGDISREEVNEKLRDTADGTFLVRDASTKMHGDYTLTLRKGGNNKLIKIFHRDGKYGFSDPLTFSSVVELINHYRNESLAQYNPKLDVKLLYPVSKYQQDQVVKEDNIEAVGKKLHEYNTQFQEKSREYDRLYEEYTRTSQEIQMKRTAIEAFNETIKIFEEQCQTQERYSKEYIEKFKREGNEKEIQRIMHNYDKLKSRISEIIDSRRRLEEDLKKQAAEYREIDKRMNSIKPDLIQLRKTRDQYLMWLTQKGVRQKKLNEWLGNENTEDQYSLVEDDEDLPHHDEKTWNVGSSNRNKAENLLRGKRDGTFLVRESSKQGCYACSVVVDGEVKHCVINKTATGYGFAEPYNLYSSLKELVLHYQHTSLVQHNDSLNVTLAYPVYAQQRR
T2 sequence (P42336 whole entry): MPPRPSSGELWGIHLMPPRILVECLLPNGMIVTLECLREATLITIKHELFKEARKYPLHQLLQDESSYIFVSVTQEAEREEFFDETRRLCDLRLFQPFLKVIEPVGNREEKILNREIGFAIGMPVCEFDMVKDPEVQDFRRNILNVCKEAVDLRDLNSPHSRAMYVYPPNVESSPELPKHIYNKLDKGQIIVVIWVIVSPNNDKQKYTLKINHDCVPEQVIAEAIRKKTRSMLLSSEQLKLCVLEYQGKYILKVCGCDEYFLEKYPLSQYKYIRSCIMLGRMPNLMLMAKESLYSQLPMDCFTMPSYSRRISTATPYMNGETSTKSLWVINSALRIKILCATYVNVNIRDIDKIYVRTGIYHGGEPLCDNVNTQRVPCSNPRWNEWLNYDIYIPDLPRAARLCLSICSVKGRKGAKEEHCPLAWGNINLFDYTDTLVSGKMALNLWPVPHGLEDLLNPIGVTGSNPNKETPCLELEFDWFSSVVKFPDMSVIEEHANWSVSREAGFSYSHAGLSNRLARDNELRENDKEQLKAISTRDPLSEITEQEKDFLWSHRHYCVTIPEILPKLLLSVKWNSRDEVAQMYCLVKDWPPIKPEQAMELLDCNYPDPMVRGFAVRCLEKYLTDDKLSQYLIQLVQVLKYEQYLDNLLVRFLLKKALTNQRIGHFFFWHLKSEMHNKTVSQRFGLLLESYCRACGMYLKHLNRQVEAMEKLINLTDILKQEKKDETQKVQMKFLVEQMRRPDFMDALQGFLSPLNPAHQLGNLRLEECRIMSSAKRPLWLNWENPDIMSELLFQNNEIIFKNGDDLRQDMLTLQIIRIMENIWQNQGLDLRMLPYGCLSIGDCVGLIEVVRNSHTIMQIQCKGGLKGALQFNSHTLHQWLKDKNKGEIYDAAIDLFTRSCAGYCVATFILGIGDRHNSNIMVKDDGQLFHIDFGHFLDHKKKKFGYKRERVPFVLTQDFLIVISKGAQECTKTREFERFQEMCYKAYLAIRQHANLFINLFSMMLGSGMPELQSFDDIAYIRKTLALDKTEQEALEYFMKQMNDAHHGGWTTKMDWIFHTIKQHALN
T2 sequence (P27986 whole entry partner): as the sequence (P27986 whole entry partner) above
T4 sequence (P42338 whole entry): as the sequence (P42338 whole entry) above
T4 sequence (P27986 whole entry partner): as the sequence (P27986 whole entry partner) above

On to `C[C@H](Nc1nc(N)nc(N)c1C#N)c1cc2ccc(F)cc2nc1-c1ccccn1` [p-toluenesulfonate of Compound A], for which the IC50 at PI3Kγ is 29 nM; on PI3Kβ (p110β) it was 44 nM; in the data set on DoHH-2 it was below 100 nM; in the data set with SU-DHL-6, below 100 nM; at PI3Kα (p110α/p85α), 117 nM; at PI3Kδ it was 0.95 nM. In addition, the IC50 at PI3Kβ came to 126 nM. Besides, the Solubility (usually the concentration that dissolves in the medium under given conditions) in [1] (methanol, read-out: solubility in methanol) is above 24 mg/mL; in [1] (tetrahydrofuran, read-out: solubility in tetrahydrofuran), above 11.6 mg/mL. Moreover, the “physical and chemical stability (purity and crystal form)” value in data set [2] (40° C./75% RH and 60° C., 7 days) was “no change in purity and crystal form”. For the same molecule, in [2] (solid, 40° C./75% RH, 7 d, average, listed as Sample 5), the “Purity (peak area %) Average - 40° C./75% RH - 7 d” value was 99.69 peak area %. For the same molecule, the “Purity (peak area %) 40° C./75% RH - 7 d” value in [2] (solid, 40° C./75% RH, 7 d, single determinations, listed as Sample 5) was 99.68 peak area % and 99.69 peak area %. Besides, the “Purity (peak area %) Average - 60° C. - 7 d” value in data set [2] (solid, 60° C., 7 d, average, listed as Sample 5) stood at 99.65 peak area %. Moreover, the “Purity (peak area %) 60° C. - 7 d” value in [2] (solid, 60° C., 7 d, single determinations, listed as Sample 5) was 99.56 peak area % and 99.74 peak area %. Also, the “Purity (peak area %) Average - 0 d” value in data set [2] (solid, day 0, average, listed as Sample 5) is reported as 99.48 peak area %. Further, in data set [2] (solid, day 0, single determinations, listed as Sample 5), the “Purity (peak area %) 0 d” value was 99.46 peak area % and 99.49 peak area %.

The values above are taken from patent US20240182407A1, “QUINOLINE COMPOUND SALT OR CRYSTAL FORM, PREPARATION METHOD THEREFOR, AND APPLICATION THEREOF” (Nanjing Zenshine Pharmaceuticals Co., Ltd., priority 2021, published 2024).
